Test results reported in US6365407B1, “Culture medium composition useful for induction and proliferation of Taxus calli” (Council of Scientific & Industrial Research, priority 2001, dated 2002).

Columns and labels:
Type in all cases: cell-based, Himalayan Yew
[1] = tested on: callus tissues of Taxus baccata ssp. Wallichiana Zucc. Pilg.; experiment: Growth of callus tissues on Picloram supplemented media; conditions: compared to media supplemented with other auxins reported earlier in the literature
From the text: (§1) Thus the combination of the modified medium of the present invention with Picloram, Sucrose, Phytagel and Antioxidants is novel and conducive for good callus growth and Taxane production in vitro. The details are described herewith. The present invention also provides a process for the enhanced production of taxol and/or taxane class of molecules in the said callus cultures which comprises inoculating any plant part of the Himalayan yew in the said culture medium for a period of 30 to 60 days in dark and at a temperature ranging between 24-26° C., to obtain the undifferentiated mass of callus culture, extracting the product by conventional solvent extraction methods and analyzing the compounds by HPLC. The stems, needles and seeds (for excision of embryos and endosperms) derived from mature trees of Taxus baccata ssp. Wallichiana Zucc. Pilg., Himalayan Yew were first washed in soap water for five min. followed by 95% ethanol treatment for one min. The alcohol was washed off with four washes of double distilled water. Surface sterilization was done with 0.1% HgCl2 for 10 min. under vacuum followed by six washes with sterile distilled water. Following this, the explants were inoculated aseptically in pre-sterilized plastic dishes (55-mm diameter) containing the medium of the present invention. The medium was prepared by mixing constituents mentioned in Tables 1 and 2. […]

[2] = tested on: ex-plants of Taxus baccata ssp. Wallichiana Zucc. Pilg.; experiment: Callus induction from ex-plants of mature trees; conditions: with or without antioxidants
From the text: as §1

[3] = tested on: callus lines of Taxus baccata ssp. Wallichiana Zucc. Pilg.; experiment: Taxane/taxol production in callus cultures, HPLC analysis
From the text: Thus the combination of the modified medium of the present invention with Picloram, Sucrose, Phytagel and Antioxidants is novel and conducive for good callus growth and Taxane production in vitro. The details are described herewith. The present invention also provides a process for the enhanced production of taxol and/or taxane class of molecules in the said callus cultures which comprises inoculating any plant part of the Himalayan yew in the said culture medium for a period of 30 to 60 days in dark and at a temperature ranging between 24-26° C., to obtain the undifferentiated mass of callus culture, extracting the product by conventional solvent extraction methods and analyzing the compounds by HPLC. The stems, needles and seeds (for excision of embryos and endosperms) derived from mature trees of Taxus baccata ssp. Wallichiana Zucc. Pilg., Himalayan Yew were first washed in soap water for five min. followed by 95% ethanol treatment for one min. The alcohol was washed off with four washes of double distilled water. Surface sterilization was done with 0.1% HgCl2 for 10 min. under vacuum followed by six washes with sterile distilled water. Following this, the explants were inoculated aseptically in pre-sterilized plastic dishes (55-mm diameter) containing the medium of the present invention.
The culture medium and method described in the present invention was tested on ex-plants of a number of matures trees (80-100 year old) collected from the Himalayas. The present protocol is applicable to all the ex-plants derived from all these trees of varying ages and genotypes. A series of callus lines were initiated and currently various callus lines of different ages produce the desirable taxanes. A number of callus lines of different ages and derived from diverse parent trees were analyzed by HPLC for detection of taxane class of molecules. […] For each of the callus lines, extractions were performed at least on three different occasions and duplicate HPLC injections were made on separate days to check for the reproducibility of the results.

Compound: Nc1c(Cl)c(Cl)nc(C(=O)O)c1Cl [Picloram]
- enhanced growth rate of callus tissues [1]: 1.5-2.0 times
- Callus formation observed in ex-plants ([2]; 0.5-2 mg.l^-1 picloram, tree nos. 2, 6 and 7): 90%
- Callus formation observed in ex-plants ([2]; 4-6 mg.l^-1 picloram, tree nos. 1, 3 and 4): 90%
- taxol content of callus ([3]; 0.5-2 mg.l^-1 picloram, callus lines derived from needles of tree nos. 2, 6 and 7): 190-300 μg taxol/g dry weight
- increase of taxol content in vitro than in vivo material ([3]; 0.5-2 mg.l^-1 picloram, needles 0.934 μg taxol/g dry weight): 203 to 321 times
- increase of taxol content compared to the in vivo material ([3]; 4-6 mg.l^-1 picloram, callus line 6, needles 0.0941 μg taxol/g dry weight): 5300-6200 times
- taxol content of callus ([3]; 4-6 mg.l^-1 picloram, callus line 6 derived from needles): 500-590 μg taxol/g dry weight
- enhanced Taxane production ([3]; calli grown in Picloram supplemented media, compared to media supplemented with other auxins): 2.0-5.4 times
- Taxol production relative to in vivo needle tissues ([3]; highest producer callus): ~5000 times
